Data reported in patent publication US6218406A, “Farnesyl transferase inhibitors, their preparation, the pharmaceutical compositions which contain them and their use in the preparation of medicaments” (Aventis Pharma S.A., priority 1996, dated 2001).
pIC50: −log10 of the molar value. Counter-ions that a name gives are not always drawn.

What follows are compounds tested against farnesyl transferase (Homo sapiens, UniProt P49354+P49356) (assay: Farnesyl transferase inhibition, [3H]-farnesylation of biotinylated K-ras C-terminal peptide (SPA assay)). Details: K-Ras substrate; 60 min at 37° C.; mean of two IC50 values; read-out: In vitro inhibitory activity (K-Ras) IC50.
Format: biochemical
Procedure: The farnesyl transferase activity was measured by the amount farnesylated of K-ras substrate or of substrate derived from the peptide corresponding to its C-terminal part, the farnesyl group being introduced by farnesyl pyrophosphate (FPP).
It was then brought into contact with PVT-streptavidin (Amersham)® beads and was quantified by proximity scintillation (SPA assay) between the tritium and the PVT beads, by virtue of the streptavidin/biotin interaction.
Experimentally, farnesyl transferase purified according to the appended protocol was diluted, for this assay, to a concentration such that a consumption of substrates of less than 30% was obtained.
The reaction, carried out in Optiplates 96° microtitration plates, was initiated by the enzyme and lasted sixty minutes at 37° C. It was stopped by addition of 150 μl of mixture of a blocking buffer at pH 4 composed of 0.2M H3 PO4, 1.5 mM MgCl2, 0.5% (w/v) BSA, 0.05% (w/v) sodium azide containing 200 μg of PVT-streptavidin beads.
After slow agitation for thirty minutes (in order to remove the chemiluminescence), the plates were read as [^3 H]CPM in a Top Count® (Packard) scintillation counter for microplates, where they were converted into [^3 H]DPM from a range of coloured agent attenuating the scintillation (quenching).
The percentages of inhibition were calculated with respect to an inhibitor-free control after subtraction from all the values of that of a blank which only contained the substrates and the buffer.
The IC50 values were calculated or measured, from the inhibitions obtained at nine different concentrations, with Enzfitter® or Grafit® software. The IC50 values which appear in the results are the mean of measurements and calculations of two IC50 values.

| pIC50 | SMILES |
| --- | --- |
| 6.74 | C=C(C(=O)N1C[C@H]2[C@@]3(c4cccc(N(C)C)c4)CC[C@H](c4ccccc43)[C@@]2(C(=O)OC)C1)c1ccccc1OC (relative stereo) [Example 91, methyl (3aRS,4SR,9SR,9aRS)-9-(3-N,N-dimethylaminophenyl)-4,9-ethano-2-[2-(2-methoxyphenyl)propenoyl]-2,3,3a,4,9,9a-hexahydro-1H-benzo[f]isoindole-3a-carboxylate] |
| 6.10 | C=C(C(=O)N1C[C@@H]2[C@]3(c4cccc(N)c4)CC[C@@H](c4ccccc43)[C@]2(C(=O)OC)C1)c1ccccc1OC (racemic) [Example 93, methyl (3aRS,4SR,9SR,9aRS)-9-(3-aminophenyl)-4,9-ethano-2-[2-(2-methoxyphenyl)propenoyl]-2,3,3a,4,9,9a-hexahydro-1H-benzo[f]isoindole-3a-carboxylate hydrochloride] |
| 6.91 | C=C(C(=O)N1C[C@@H]2[C@]3(c4ccc(CC)cc4)CC[C@@H](c4ccccc43)[C@]2(C(=O)O)C1)c1ccccc1OC (racemic) [Example 60, (3aRS,4SR,9SR,9aRS)-4,9-ethano-9-(4-ethylphenyl)-2-[2-(2-methoxyphenyl)propenoyl]-2,3,3a,4,9,9a-hexahydro-1H-benzo[f]isoindole-3a-carboxylic Acid] |
| 6.39 | C=C(C(=O)N1C[C@@H]2[C@]3(c4cccc(Cl)c4)CC[C@@H](c4ccccc43)[C@]2(C(=O)OC)C1)c1ccccc1OC (racemic) [Example 88, methyl (3aRS,4SR,9SR,9aRS)-9-(3-chlorophenyl)-4,9-ethano-2-[2-(2-methoxyphenyl)propenoyl]-2,3,3a,4,9,9a-hexahydro-1H-benzo[f]isoindole-3a-carboxylate] |
| 7.74 | C=C(C(=O)N1C[C@@H]2[C@]3(c4ccc(C)cc4)CC[C@@H](c4c(OC)cccc43)[C@]2(C(=O)O)C1)c1ccccc1OC (racemic) [Example 99, (3aRS,4SR,9SR,9aRS)-4,9-ethano-5-methoxy-2-[2-(2-methoxyphenyl)propenoyl]-9-(4-methylphenyl)-2,3,3a,4,9,9a-hexahydro-1H-benzo[f]isoindole-3a-carboxylic Acid] |
| 7.00 | C=C(C(=O)N1C[C@@H]2[C@]3(c4ccc(Cl)c(F)c4)CC[C@@H](c4ccccc43)[C@]2(C(=O)O)C1)c1ccccc1OC (racemic) [Example 67, (3aRS,4SR,9SR,9aRS)-9-(4-chloro-3-fluorophenyl)-4,9-ethano-2-[2-(2-methoxyphenyl)propenoyl]-2,3,3a,4,9,9a-hexahydro-1H-benzo[f]isoindole-3a-carboxylic Acid] |
| 6.25 | C=C(C(=O)N1C[C@H]2[C@@]3(c4ccc(N(C)C)cc4)CC[C@H](c4ccccc43)[C@@]2(C(=O)OC)C1)c1ccccc1OC (relative stereo) [Example 94, methyl (3aRS,4SR,9SR,9aRS)-9-(4-N,N-dimethylaminophenyl)-4,9-ethano-2-[2-(2-methoxyphenyl)propenoyl]-2,3,3a,4,9,9a-hexahydro-1H-benzo[f]-isoindole-3a-carboxylate] |
| 6.34 | C=C(C(=O)N1C[C@@H]2[C@]3(c4ccc(OC)cc4)CC[C@@H](c4ccccc43)[C@]2(C(=O)OC)C1)c1ccccc1OC (racemic) [Example 73, methyl (3aRS,4SR,9SR,9aRS)-4,9-ethano-9-(4-methoxyphenyl)-2-[2-(2-methoxyphenyl)propenoyl]-2,3,3a,4,9,9a-hexahydro-1H-benzo[f]isoindole-3a-carboxylate] |
| 6.39 | C=C(C(=O)N1C[C@@H]2[C@]3(c4ccc(CC)cc4)CC[C@@H](c4ccccc43)[C@]2(C(=O)OC)C1)c1ccccc1OC (racemic) [Example 59, methyl (3aRS,4SR,9SR,9aRS)-4,9-ethano-9-(4-ethylphenyl)-2-[2-(2-methoxyphenyl)propenoyl]-2,3,3a,4,9,9a-hexahydro-1H-benzo[f]isoindole-3a-carboxylate] |

Further lines, the compound ahead of its results:

| SMILES | pIC50 |
| --- | --- |
| C=C(C(=O)N1C[C@H]2[C@@]3(c4ccc(C)cc4)CC[C@H](c4ccccc43)[C@@]2(C(=O)NN(C)c2ccccc2)C1)c1ccccc1OC (relative stereo) [Example 28, (3aRS,4SR,9SR,9aRS)-4,9-ethano-2-[2-(2-methoxyphenyl)propenoyl]-9-(4-methylphenyl)-2,3,3a,4,9,9a-hexahydro-1H-benzo[f]isoindole-3a-N'-methyl-N'-phenylcarbohydrazide] | 7.27 |
| C=C(C(=O)N1C[C@H]2[C@@]3(c4ccc(C)cc4)CC[C@H](c4ccccc43)[C@@]2(C(=O)NNc2ccc(OC)cc2)C1)c1ccccc1OC (relative stereo) [Example 27, (3aRS,4SR,9SR,9aRS)-4,9-ethano-2-[2-(2-methoxyphenyl)propenoyl]-9-(4-methylphenyl)-2,3,3a,4,9,9a-hexahydro-1H-benzo[f]isoindole-3a-N'-(4-methoxyphenyl)carbohydrazide] | 8.05 |
| COc1ccccc1CC(=O)N1C[C@@H]2[C@]3(c4ccc(C)c(C)c4)CC[C@@H](c4ccccc43)[C@]2(C(=O)O)C1 (racemic) [Example 12, (3aRS,4SR,9SR,9aRS)-9-(3,4-dimethyl-phenyl)-4,9-ethano-2-[(2-methoxyphenyl)acetyl]-2,3,3a,4,9,9a-hexahydro-1H-benzo[f]isoindole-3a-carboxylic Acid] | 7.35 |
| COc1ccc([C@]23CC[C@H](c4ccccc42)[C@@]2(C(=O)O)CN(C(=O)Cc4ccccc4OC)C[C@@H]32)cc1 (relative stereo) [Example 6, (3aRS,4SR,9SR,9aRS)-4,9-ethano-9-(4-methoxyphenyl)-2-[(2-methoxyphenyl)acetyl]-2,3,3a,4,9,9a-hexahydro-1H-benzo[f]isoindole-3a-carboxylic Acid] | 7.24 |
| C=C(C(=O)N1C[C@@H]2[C@@]3(c4ccc(C)cc4)CC[C@@H](c4ccccc43)[C@]2(C(=O)O)C1)c1ccccc1OC (racemic) [Example 2, (3aRS,4SR,9RS,9aRS)-4,9-ethano-2-[2-(2-methoxyphenyl)propenoyl]-9-(4-methylphenyl)-2,3,3a,4,9,9a-hexahydro-1H-benzo[f]isoindole-3a-carboxylic Acid] | 7.35 |
| C=C(C(=O)N1C[C@@H]2[C@]3(c4ccc(Br)cc4)CC[C@@H](c4ccccc43)[C@]2(C(=O)O)C1)c1ccccc1OC (racemic) [Example 50, (3aRS,4SR,9SR,9aRS)-9-(4-bromophenyl)-4,9-ethano-2-[2-(2-methoxyphenyl)propenoyl]-2,3,3a,4,9,9a-hexahydro-1H-benzo[f]isoindole-3a-carboxylic Acid] | 7.23 |
| COc1ccccc1CC(=O)N1C[C@H]2[C@@]3(c4ccc(SC)cc4)CC[C@H](c4ccccc43)[C@@]2(C(=O)O)C1 (relative stereo) [Example 7, (3aRS,4SR,9SR,9aRS)-4,9-ethano-2-[(2-methoxyphenyl)acetyl]-9-(4-methylsulphanylphenyl)-2,3,3a,4,9,9a-hexahydro-1H-benzo[f]isoindole-3a-carboxylic Acid] | 7.30 |
| C=C(C(=O)N1C[C@H]2[C@@]3(c4ccc5c(c4)OCCO5)CC[C@H](c4ccccc43)[C@@]2(C(=O)NCc2cccnc2)C1)c1ccccc1OC (relative stereo) [Example 33, (3aRS,4SR,9SR,9aRS)-9-(2,3-dihydro-1,4-benzodioxin-6-yl)-4,9-ethano-2-[2-(2-methoxyphenyl)propenoyl]-2,3,3a,4,9,9a-hexahydro-1H-benzo[f]isoindole-3a-N-(3-pyridylmethyl)carboxamide] | 6.62 |
| C=C(C(=O)N1C[C@H]2[C@@]3(c4ccc(C)cc4)CC[C@H](c4ccccc43)[C@@]2(C(=O)NCc2ccc[n+]([O-])c2)C1)c1ccccc1OC (relative stereo) [Example 26, (3aRS,4SR,9SR,9aRS)-4,9-ethano-2-[2-(2-methoxyphenyl)-propenoyl]-9-(4-methylphenyl)-2,3,3a,4,9,9a-hexahydro-1H-benzo[f]isoindole-3a-N-(N-oxo-3-pyridyl)methylcarboxamide] | 6.84 |
| C=C(C(=O)N1C[C@H]2[C@@]3(c4ccc(C)cc4)CC[C@H](c4ccccc43)[C@@]2(C(=O)NCc2cccnc2)C1)c1ccccc1OC (single isomer, unassigned) [Example 18, Dextrorotatory Enantiomer of (3aRS,4SR,9SR,9aRS)-4,9-ethano-2-[2-(2-methoxyphenyl)propenoyl]-9-(4-methylphenyl)-2,3,3a,4,9,9a-hexahydro-1H-benzo[f]isoindole-3a-N-(3-pyridylmethyl)carboxamide] | 7.30 |
| C=C(C(=O)N1C[C@@H]2[C@]3(c4ccc(C)cc4)CC[C@@H](c4ccccc43)[C@]2(C(=O)NS(=O)(=O)c2ccccc2)C1)c1ccccc1OC (racemic) [Example 25, (3aRS,4SR,9SR,9aRS)-4,9-ethano-2-[2-(2-methoxyphenyl)propenoyl]-9-(4-methylphenyl)-3a-phenylsulphonylaminocarbonyl-2,3,3a,4,9,9a-hexahydro-1H-benzo[f]isoindole] | 6.71 |
| C=C(C(=O)N1C[C@@H]2[C@]3(c4ccc5c(c4)OCCO5)CC[C@@H](c4ccccc43)[C@]2(C(=O)O)C1)c1ccccc1OC (racemic) [Example 32, (3aRS,4SR,9SR,9aRS)-9-(2,3-dihydro-1,4-benzodioxin-6-yl)-4,9-ethano-2-[2-(2-methoxyphenyl)-propenoyl]-2,3,3a,4,9,9a-hexahydro-1H-benzo[f]isoindole-3a-carboxylic Acid] | 6.97 |
